Literature values in patent publication US11661349B2, “Method for making coffee husk reducing agent” (Imam Abdulrahman Bin Faisal University, priority 2019, dated 2023).

What was measured:
Aspergillus niger = settings: A. niger; from Elefanti et al. 2013
Aspergillus flavus = settings: A. flavus; from Elefanti et al. 2013

OC(Cn1cncn1)(Cn1cncn1)c1ccc(F)cc1F [Flucanazole]
100 µg/mL: MFC (Minimum Fungicidal Concentration) (Aspergillus niger) | MIC (Aspergillus niger) | MFC (Minimum Fungicidal Concentration) (Aspergillus flavus) | MIC (Aspergillus flavus)
